Measured values from PubChem BioAssay (NCI).
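In this assay, cells in 96-well plates receive the compound at five concentrations for 48 hours. Endpoints are linearly interpolated between the surrounding concentrations. At the GI50, growth is halved. TGI marks complete inhibition of growth.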 The source made the active and inactive calls. Cut-off read from the data, not from the text of the source: active = GI50 below about 0.43 µM; inactive = the rest.

Legend:
Experiment in all cases: NCI-60 cell line screen, 48 h
SW-620 colon = tested on: SW-620 colon
SF-268 CNS = tested on: SF-268 CNS
HT29 colon = tested on: HT29 colon
NCI-H23 lung = tested on: NCI-H23 lung
HCC-2998 colon = tested on: HCC-2998 colon
SK-MEL-28 melanoma = tested on: SK-MEL-28 melanoma
COLO 205 colon = tested on: COLO 205 colon
SF-295 CNS = tested on: SF-295 CNS

Structure (SMILES): CCCCCCCC[C@@H](O)CC(=O)N[C@@H](CC(N)=O)C(=O)N[C@@H](CCC(N)=O)C(=O)N[C@@H](CC(=O)c1cc(C)cc(O)c1C(=O)c1c(O)cccc1O)CC(C)C
- GI50 (SW-620 colon): 0.426 µM
- TGI (SW-620 colon): 23.6 µM
- GI50 (SF-268 CNS): 0.374 µM
- TGI (SF-268 CNS): 2.55 µM
- GI50 (HT29 colon): 0.404 µM
- TGI (HT29 colon): 5.49 µM
- GI50 (NCI-H23 lung): 1.36 µM
- TGI (NCI-H23 lung): 14.8 µM
- GI50 (HCC-2998 colon): 0.403 µM
- TGI (HCC-2998 colon): 1.43 µM
- GI50 (SK-MEL-28 melanoma): 1.59 µM
- TGI (SK-MEL-28 melanoma): 25.5 µM
- GI50 (COLO 205 colon): 0.399 µM
- TGI (COLO 205 colon): 12 µM
- GI50 (SF-295 CNS): 1.97 µM
- TGI (SF-295 CNS): 7.53 µM

Structure (SMILES): CCCC(=O)OCC1OC(n2cnc3c(=S)nc[nH]c32)C(OC(=O)CCC)C1OC(=O)CCC (stereo not given)
- GI50 (SW-620 colon): 4.59 µM
- TGI (SW-620 colon): > 100 µM
- GI50 (SF-268 CNS): 5.95 µM
- TGI (SF-268 CNS): > 100 µM
- GI50 (HT29 colon): 3.63 µM
- TGI (HT29 colon): > 100 µM
- GI50 (NCI-H23 lung): 5.09 µM
- TGI (NCI-H23 lung): > 100 µM
- GI50 (HCC-2998 colon): 2.92 µM
- TGI (HCC-2998 colon): > 100 µM
- GI50 (SK-MEL-28 melanoma): 77.5 µM
- TGI (SK-MEL-28 melanoma): > 100 µM
- GI50 (COLO 205 colon): 4.57 µM
- TGI (COLO 205 colon): 18.9 µM
- GI50 (SF-295 CNS): 3.53 µM
- TGI (SF-295 CNS): > 100 µM

Structure (SMILES): COc1ccc(N2C(=O)/C(=C/c3ccc(N(CCC#N)CCC#N)cc3C)N=C2c2cc([N+](=O)[O-])ccc2Cl)cc1
- TGI (SW-620 colon): > 56.2 µM
- TGI (SF-268 CNS): > 63.1 µM
- TGI (HT29 colon): 9.95 µM
- TGI (NCI-H23 lung): > 61.6 µM
- TGI (HCC-2998 colon): 15.2 µM
- TGI (SK-MEL-28 melanoma): > 63.1 µM
- TGI (COLO 205 colon): 25.6 µM
- TGI (SF-295 CNS): 5.8 µM

Structure (SMILES): CC/C=C\C[C@@H](O)C/C=C1/C(=O)C=C[C@H]1C/C=C\CCCC(=O)OC
- GI50 (SW-620 colon): 2.84 µM
- TGI (SW-620 colon): 8.6 µM
- GI50 (SF-268 CNS): 3.92 µM
- TGI (SF-268 CNS): 15.3 µM
- GI50 (HT29 colon): 2.36 µM
- TGI (HT29 colon): 5.74 µM
- GI50 (NCI-H23 lung): 2.4 µM
- TGI (NCI-H23 lung): 6.63 µM
- GI50 (HCC-2998 colon): 2.1 µM
- TGI (HCC-2998 colon): 3.61 µM
- GI50 (SK-MEL-28 melanoma): 2.1 µM
- TGI (SK-MEL-28 melanoma): 5.34 µM
- GI50 (COLO 205 colon): 1.8 µM
- TGI (COLO 205 colon): 4.66 µM
- GI50 (SF-295 CNS): 2.97 µM
- TGI (SF-295 CNS): 9.27 µM

Structure (SMILES): C/C(O)=C(\N=O)C(=O)Nc1ccc(Cl)cc1Cl
- TGI (SW-620 colon): > 100 µM
- TGI (SF-268 CNS): > 100 µM
- TGI (HT29 colon): > 100 µM
- TGI (NCI-H23 lung): > 100 µM
- TGI (HCC-2998 colon): > 100 µM
- TGI (SK-MEL-28 melanoma): > 100 µM
- TGI (COLO 205 colon): > 100 µM
- TGI (SF-295 CNS): > 100 µM

Structure (SMILES): Cc1c(C(=O)C/C(=N/NC(=O)C[N+](C)(C)C)C(=O)Nc2ccc(Cl)cc2)[n+](=O)c2ccccc2n1O
- TGI (SW-620 colon): > 100 µM
- TGI (SF-268 CNS): > 100 µM
- TGI (HT29 colon): > 100 µM
- TGI (NCI-H23 lung): > 100 µM
- TGI (HCC-2998 colon): > 100 µM
- TGI (SK-MEL-28 melanoma): > 100 µM
- TGI (COLO 205 colon): > 100 µM
- TGI (SF-295 CNS): > 100 µM

Structure (SMILES): O=C(CC1(O)C(=O)Nc2ccccc21)c1ccncc1 (stereo not given)
- TGI (SW-620 colon): > 100 µM
- TGI (SF-268 CNS): > 100 µM
- TGI (HT29 colon): > 100 µM
- TGI (NCI-H23 lung): > 100 µM
- TGI (HCC-2998 colon): > 100 µM
- TGI (SK-MEL-28 melanoma): > 100 µM
- TGI (COLO 205 colon): > 100 µM
- TGI (SF-295 CNS): > 100 µM

Structure (SMILES): CCOC(=O)/C(C#N)=C/c1[nH]c(C(=O)OCc2ccccc2)c(C)c1C
- TGI (SW-620 colon): > 100 µM
- TGI (SF-268 CNS): > 100 µM
- TGI (HT29 colon): > 100 µM
- TGI (NCI-H23 lung): > 100 µM
- TGI (HCC-2998 colon): > 100 µM
- TGI (SK-MEL-28 melanoma): > 100 µM
- TGI (COLO 205 colon): > 100 µM
- TGI (SF-295 CNS): > 100 µM

Structure (SMILES): COC1(OC)CC2OC1C1N=NN(C(=O)OC(C)(C)C)C21 (stereo not given)
- TGI (SW-620 colon): > 100 µM
- TGI (SF-268 CNS): > 100 µM
- TGI (HT29 colon): > 100 µM
- TGI (NCI-H23 lung): > 100 µM
- TGI (HCC-2998 colon): > 100 µM
- TGI (SK-MEL-28 melanoma): > 100 µM
- TGI (COLO 205 colon): > 100 µM
- TGI (SF-295 CNS): > 100 µM

Structure (SMILES): COc1ccc(C(=O)C#Cc2cnc(OC)nc2OC)cc1
- GI50 (SW-620 colon): 25200 µM
- TGI (SF-268 CNS): 7.41 µM
- outcome (SF-268 CNS): inactive
- GI50 (HT29 colon): 17900 µM
- GI50 (NCI-H23 lung): 35000 µM
- TGI (NCI-H23 lung): 3.08 µM
- TGI (HCC-2998 colon): 3.83 µM
- outcome (HCC-2998 colon): inactive
- GI50 (SK-MEL-28 melanoma): 89800 µM
- TGI (SK-MEL-28 melanoma): 3.47 µM
- TGI (COLO 205 colon): 42100 µM
- TGI (SF-295 CNS): 24.8 µM
- outcome (SF-295 CNS): inactive

Structure (SMILES): O=C(O)c1nn(-c2ccccc2-c2n[nH]c(=O)[nH]c2=O)c(=O)[nH]c1=O
- TGI (SW-620 colon): > 100 µM
- TGI (SF-268 CNS): > 100 µM
- TGI (HT29 colon): > 100 µM
- TGI (NCI-H23 lung): > 100 µM
- TGI (HCC-2998 colon): > 100 µM
- TGI (SK-MEL-28 melanoma): > 100 µM
- TGI (COLO 205 colon): > 100 µM
- TGI (SF-295 CNS): > 100 µM

Structure (SMILES): CC1CN1C(=O)NCCCCCCNC(=O)N1CC1C (stereo not given)
- TGI (SW-620 colon): > 100 µM
- TGI (SF-268 CNS): > 100 µM
- TGI (HT29 colon): > 100 µM
- TGI (NCI-H23 lung): > 100 µM
- TGI (HCC-2998 colon): > 100 µM
- TGI (SK-MEL-28 melanoma): > 100 µM
- TGI (COLO 205 colon): > 100 µM
- TGI (SF-295 CNS): > 100 µM
